Entries after “also recorded” stand apart in the source; their conditions may differ.
Legend:
narcoleptic Ox-/- mice [1] = details: orexin KO mouse model, literature; cited from earlier work
narcoleptic Ox-/- mice [2] = experiment: DREM cataplectic-like episodes in narcoleptic orexin knockout mice; type: in vivo; details: oral
[3] = poor metabolizers (PM) of sparteine/debrisoquine, 50 mg racemic flecainide acetate (Gross et al, 1989); cited from earlier work
Cx43 = biological target: T1, Cx43 (Homo sapiens, UniProt P17302); experiment: Dye transfer (cell-parachute) gap junction assay, Rin-Cx43 cells; type: cell-based; details: flecainide racemate 70, 140 or 280 μM, 4 hours, flow cytometry
T1 construct: expressed in transfected cells; host or cells: rat insulinoma RIN cell line (Rin-Cx43), pcDNA3.1/V5-His-TOPO, geneticin-selected
T1 sequence (P17302 2-382 limits assumed): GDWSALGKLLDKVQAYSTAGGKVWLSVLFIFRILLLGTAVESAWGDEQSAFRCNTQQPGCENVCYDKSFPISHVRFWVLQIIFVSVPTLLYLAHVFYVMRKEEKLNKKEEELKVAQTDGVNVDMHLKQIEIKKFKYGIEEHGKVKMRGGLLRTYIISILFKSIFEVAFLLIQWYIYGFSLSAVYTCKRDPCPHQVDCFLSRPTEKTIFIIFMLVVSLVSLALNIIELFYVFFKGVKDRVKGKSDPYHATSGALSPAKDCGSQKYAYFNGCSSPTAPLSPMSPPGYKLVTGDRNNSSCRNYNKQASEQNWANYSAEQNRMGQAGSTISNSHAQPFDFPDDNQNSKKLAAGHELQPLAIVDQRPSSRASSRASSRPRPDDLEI
Experimental: (§1) The rat insulinoma RIN cell line, deficient in GJIC (del Corsso et al, 2006), was grown in OptiMem medium, supplemented with 10% fetal calf serum. GJB6 (Cx30), GJB1 (Cx32), GJB2 (Cx26), GJA5 (Cx40) and GJA1 (Cx43) open reading frames were amplified from human cDNA. The open reading frames were cloned in pcDNA3.1/V5-His-TOPO (Invitrogen). Cells were transfected using Lipofectamine and further selected using geneticin.
(§2) Cells were seeded and loaded with two fluorochromes, calcein acetoxymethyl ester, a gap junction permeable dye, and Vybrant Dil, a membrane lipophilic dye. […] Flow cytometry was conducted on a FACScan. Inhibition was quantified as the relative number of receiver cells that gained fluorescence to the total number of receiver cells (non GJ-mediated dye transfer was then substracted to these ratio based on connexin non-expressing RIN cells, defined at background dye transfer ratio). This ratio of cellular coupling was then normalized, after each treatment, on the vehicle one.

Cx40 = biological target: T2, Cx40 (Homo sapiens, UniProt P36382); experiment: Dye transfer (cell-parachute) gap junction assay, Rin-Cx40 cells; type: cell-based; details: flecainide racemate 70, 140 or 280 μM, 4 hours, flow cytometry
T2 construct: expressed in transfected cells; host or cells: rat insulinoma RIN cell line (Rin-Cx40), pcDNA3.1/V5-His-TOPO, geneticin-selected
T2 sequence (P36382 whole entry): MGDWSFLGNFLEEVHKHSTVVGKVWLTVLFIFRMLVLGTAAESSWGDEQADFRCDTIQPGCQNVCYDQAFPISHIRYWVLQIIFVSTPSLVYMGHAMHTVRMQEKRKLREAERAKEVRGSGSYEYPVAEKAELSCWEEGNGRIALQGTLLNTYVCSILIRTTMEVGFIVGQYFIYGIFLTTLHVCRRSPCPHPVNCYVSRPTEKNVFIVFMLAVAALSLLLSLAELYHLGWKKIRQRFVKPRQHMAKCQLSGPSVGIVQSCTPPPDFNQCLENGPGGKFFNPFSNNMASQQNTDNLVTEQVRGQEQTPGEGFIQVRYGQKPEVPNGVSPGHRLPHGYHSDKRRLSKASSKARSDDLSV
Experimental: as §1, §2

Cx30 = biological target: T3, Cx30 (Homo sapiens, UniProt O95452); experiment: Dye transfer (cell-parachute) gap junction assay, Rin-Cx30 cells; type: cell-based; details: flecainide racemate 70, 140 or 280 μM, 4 hours, flow cytometry
T3 construct: expressed in transfected cells; host or cells: rat insulinoma RIN cell line (Rin-Cx30), pcDNA3.1/V5-His-TOPO, geneticin-selected
T3 sequence (O95452 whole entry): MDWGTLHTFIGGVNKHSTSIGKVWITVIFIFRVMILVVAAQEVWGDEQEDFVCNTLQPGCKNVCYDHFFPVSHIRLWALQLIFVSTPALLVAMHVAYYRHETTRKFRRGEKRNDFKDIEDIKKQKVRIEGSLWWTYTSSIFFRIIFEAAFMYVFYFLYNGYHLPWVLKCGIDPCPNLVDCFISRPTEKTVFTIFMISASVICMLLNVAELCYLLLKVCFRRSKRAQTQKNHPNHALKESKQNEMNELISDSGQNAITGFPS
Experimental: as §1, §2

RIN cells = experiment: Toxicity analysis, cell viability by WST-1; type: cell-based, rat; details: RIN cells treated 4 hours, grown 24 h; at the dose inhibiting cerebral connexins
Experimental: Twenty thousand RIN were seeded in 100 μl of culture medium in 96-wells plates. After 48 h culture, cells were treated for 4 hours with previously identified chemical compounds at several concentrations. Cells were rinsed in PBS and grown 24 h in fresh medium. Cell viability was measured by using WST-1 (Roche).

mice [4] = experiment: T-maze alternating sequential test (spatial working memory); type: in vivo; details: intraperitoneal
Excerpt: The alternating sequential test is widely used to assess spatial working memory in mice (Beracochea & Jaffard, 1987). Spontaneous alternation is the innate tendency of rodents to alternate their choices to entry into the compartments of arrival of a T-maze device, over successive trials. To alternate during a given trial N, the animal must remember the choice made selectively in test N−1, so the decline in alternating will reflect the phenomenon of oblivion. The response in alternating is performance measure. Sequential alternating assesses more specifically the sensitivity to interference, a major factor in oblivion.
The experiment takes place in a T-maze (50 cm×10 cm×25 cm). All the subjects were given 7 successive trials separated by a 120-s intertrial interval. To begin a trial, the mouse was placed in the start box for 120 s before the door to the stem was opened. When the subject entered one of the goal arms, the door to that arm was closed. The chosen arm and the time that elapsed between opening the door and the arrival to the end of the chosen arm (task achievement time) were registered. Following a 30-s confinement period (fixed and invariant) in the chosen arm, the animal was removed and placed in the start box for a new trial. Between each test, the unit is cleaned with a cloth soaked in water and alcohol to avoid olfactory detection. […]

[5] = test system: Wild-type C57bl/6 male mice; experiment: Wake duration by polysomnographic analysis; type: in vivo; details: oral
Excerpt: Wild-type C57bl/6 male mice (n=9/groups) were implanted with EEG/EMG/EOG electrodes for polysomnographic analyses. […] Here the inventors represented the duration of wake during the first three hours (after a one-hour period post-administration). **: p<0.01 in a One-Way ANOVA analysis.

Cx26 = biological target: T4, Cx26 (Homo sapiens, UniProt P29033); experiment: Dye transfer (cell-parachute) gap junction assay, Rin-Cx26 cells; type: cell-based; details: flecainide racemate 70, 140 or 280 μM, 4 hours, flow cytometry
T4 construct: expressed in transfected cells; host or cells: rat insulinoma RIN cell line (Rin-Cx26), pcDNA3.1/V5-His-TOPO, geneticin-selected
Experimental: as §1, §2

Cx32 = biological target: T5, Cx32 (Homo sapiens, UniProt P08034); experiment: Dye transfer (cell-parachute) gap junction assay, Rin-Cx32 cells; type: cell-based; details: flecainide racemate 70, 140 or 280 μM, 4 hours, flow cytometry
T5 construct: expressed in transfected cells; host or cells: rat insulinoma RIN cell line (Rin-Cx32), pcDNA3.1/V5-His-TOPO, geneticin-selected
T5 sequence (P08034 whole entry): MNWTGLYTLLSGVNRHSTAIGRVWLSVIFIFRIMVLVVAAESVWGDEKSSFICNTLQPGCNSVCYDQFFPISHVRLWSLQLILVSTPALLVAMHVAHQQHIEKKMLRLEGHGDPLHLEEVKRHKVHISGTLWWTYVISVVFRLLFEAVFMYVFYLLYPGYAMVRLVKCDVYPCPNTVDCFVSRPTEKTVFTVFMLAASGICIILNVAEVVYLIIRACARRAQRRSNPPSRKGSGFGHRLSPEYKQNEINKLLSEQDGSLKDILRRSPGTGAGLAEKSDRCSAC
Experimental: as §1, §2

mice [6] = experiment: Locomotor activity by video tracking; type: in vivo; details: oral
Experimental: Locomotor activity is evaluated by video tracking. Videos have been analyzed using Ethovision XT software (Noldus®).*: p<0.01 in a Two-Way ANOVA analysis

[7] = test system: cardiac myocyte cell pairs; details: cardiac myocyte cell pairs (Daleau et al, 1998); cited from earlier work
[8] = flecainide racemate 1 mg/kg alone

## NC(=O)C[S+]([O-])C(c1ccccc1)c1ccccc1 (stereo not drawn) [modafinil, 2-[(diphenylmethyl)sulfinyl] acetamide]
Narcoleptic Ox-/- mice [1]
  DREM episodes under modafinil (Lin et al, 2008): allows DREM episodes to persist
Narcoleptic Ox-/- mice [2]; modafinil 64 mg/kg alone
  DREM cataplectic-like phenotype, modafinil alone: do not have any significant effect

## O=C(NC[C@@H]1CCCCN1)c1cc(OCC(F)(F)F)ccc1OCC(F)(F)F [S-flecainide, (S)—N-(piperidin-2-ylmethyl)-2,5-bis(2,2,2-trifluoroethoxy)benzamide]
[3]
  half-life: 9.8 h
  urinary recovery: 12.0 ± 3.7 mg

## O=C(NCC1CCCCN1)c1cc(OCC(F)(F)F)ccc1OCC(F)(F)F (racemic) [flecainide, N-(piperidin-2-ylmethyl)-2,5-bis(2,2,2-trifluoroethoxy) benzamide]
Cx43
  Inhibition of gap junction dye transfer (cellular coupling): inhibits all the tested isoforms; also recorded: higher inhibition levels
Cx40
  Inhibition of gap junction dye transfer (cellular coupling): inhibits all the tested isoforms
Cx30
  Inhibition of gap junction dye transfer (cellular coupling): inhibits all the tested isoforms; also recorded: higher inhibition levels
Narcoleptic Ox-/- mice [2]; [8]
  DREM cataplectic-like phenotype, flecainide alone: no effect
RIN cells
  Cell viability (WST-1): no cell toxicity
Mice [4]; [8]
  Cognitive (promnesiant) effect, flecainide alone: no own cognitive effect
Mice [4]; modafinil 64 mg/kg + flecainide racemate 1 mg/kg
  Promnesiant activity of modafinil (percentage of alternation) with flecainide added: significantly potentiates
[5]; flecainide 1 mg/kg alone
  Wake duration, flecainide alone: devoid of own effect on wake duration
[5]; modafinil 32 mg/kg + flecainide racemate 1 mg/kg, first three hours after one-hour period
  Waking effect of modafinil (wake duration) with flecainide added: significantly increases
Cx26
  Inhibition of gap junction dye transfer (cellular coupling): inhibits all the tested isoforms; also recorded: higher inhibition levels
Cx32
  Inhibition of gap junction dye transfer (cellular coupling): inhibits all the tested isoforms
Mice [6]; [8]
  Locomotor effect, flecainide alone: devoid of any own locomotor effect
Mice [6]; modafinil 64 mg/kg + flecainide 1 mg/kg
  Duration of effect of modafinil on locomotor activity with flecainide added: significantly increases the duration of effect of modafinil
[7]
  Influence on junctional resistance: not to influence

## O=C(NC[C@H]1CCCCN1)c1cc(OCC(F)(F)F)ccc1OCC(F)(F)F [R-flecainide, (R)—N-(piperidin-2-ylmethyl)-2,5-bis(2,2,2-trifluoroethoxy)benzamide]
Narcoleptic Ox-/- mice [2]; modafinil 64 mg/kg + enantiomer 1 mg/kg, R- compared with S-flecainide
  DREM cataplectic-like phenotype, flecainide enantiomer combined with modafinil: more efficient
[3]
  half-life: 12.9 h
  urinary recovery: 15.6 ± 3.7 mg

Reference: patent publication US10639301B2 (Commissariat a L'Energie Atomique et Aux Energies …, priority 2013, dated 2020)
